From patent US20140378551A1, “Composition for the Prophylactic Treatment of Neuropathic Pain” (Universite d'Auvergne, priority 2011, published 2014)
Where two headings read alike, the source gives them in different places.

Legend:
[1] = test system: neuropathic pain in patients; conditions: cited from earlier work
neuropathic pain in rats = conditions: sciatic nerve ligature or formalin injection, administered during or after the operation (Eisenberg 1995; Carlton 1995), cited from earlier work
[2] = test system: neuropathic pain induced by spinal nerve ligation among rats; test: Y-Maze test: spatial memory, spinal nerve ligation model; type: in vivo, rat
Experimental: (§1) The effects of the prolonged and preventive administration of memantine were first of all studied among rats. The model used was that of the ligation of the spinal nerve L5 (herein after called SNL for spinal nerve ligation) among rats. The emergence of neuropathic pain is assessed according to the following criteria: • the behavior of the rat following the spinal nerve ligation (SNL), • cognition, and • molecular events, including the expression of phosphorylated tyrosine 1472 of the NR2B sub-unit of the NMDA receptor at the spinal level.
(§2) The study was based on the comparison of the two main groups of animals. The first group was a control group. The rats of the control group, designated as “Sham” in the graphs, underwent no operation. They are used to assess the role of the injected substances on the individual, without there being any emergence of neuropathic pain.
Two sub-groups were set up in this group: • one sub-group treated with the vehicle which is a saline solution of NaCl 0.9% by mass, in a dose of 1 mL/kg/rat/day, by intraperitoneal injection; and • one sub-group treated with memantine in a dose of 20 mg/kg/rat/day, by intraperitoneal injection. […]
The rat is placed in the middle of a chamber with three arms, each 40 cm long and 4 cm wide. The rat moves around freely in the different arms for five minutes and the number of entries into each of the arms is counted up. […]

[3] = test system: neuropathic pain induced by spinal nerve ligation among rats; test: Paw pressure test (Randall & Selitto): mechanical hyperalgesia, spinal nerve ligation model; type: in vivo, rat
Experimental: as §1, §2
Two sub-groups were set up in this group: • one sub-group treated with the vehicle which is a saline solution of NaCl 0.9% by mass, in a dose of 1 mL/kg/rat/day, by intraperitoneal injection; and • one sub-group treated with memantine in a dose of 20 mg/kg/rat/day, by intraperitoneal injection.
The second group of animals comprises rats having to undergo to spinal nerve ligation and therefore likely to develop neuropathic pain. This group is referred to in the graphs by the term SNL. As in the control group, this group is divided into two sub-groups: • one sub-group treated with the vehicle, which is a saline solution of NaCl 0.9% by mass, in a dose of 1 mL/kg/rat/day, by intraperitoneal injection; and • one sub-group treated by memantine in a dose of 20 mg/kg/rat/day, by intraperitoneal injection. […]
7. Seven to 14 days after the surgery, the neuropathic, hyperalgesic or allodynic rats are selected according to their response to nociceptive and non-nociceptive stimulation assessed through appropriate tests (see paragraph 6.1.2). […]

## CC12CC3CC(C)(C1)CC(N)(C3)C2 [memantine, 1-amino-3,5-dimethyl-adamantane]
[1]; Nikolajsen et al., 2000
  relief to patients with amputated limb or nerve lesions following surgery: inefficacious
[1]; administered just after the operation (Buvanendran et al, 2008)
  effect in patients who had undergone amputation: beneficial effect
Neuropathic pain in rats
  development of neuropathic pain in rats: limits the appearance of symptoms of neuropathic pain but only dose-dependently and only for a determined period of time
Neuropathic pain in rats; listed as Memantine
  development of neuropathic pain in rats: positive effect in the development of neuropathic pain in rats
[2]; SNL rats, memantine for the 4 days preceding operation and days following
  capacity of exploration (time passed in exploring the arms): this capacity is restored
[2]; rats without ligation, injection for one week, compared with normal rats
  capacity of exploration (time passed in exploring the arms): does not significantly modify the capacity of exploration of the rat
[3]; SNL rats, 20 mg/kg/rat/day i.p., four days before and three days after the operation
  vocalization threshold (mechanical hyperalgesia): vocalization threshold very close to that of non-operated rats
[3]; SNL rats, 20 mg/kg/rat/day i.p., post-operative injection only (three days after operation)
  vocalization threshold (mechanical hyperalgesia): not enough to restore a normal vocalization threshold
[3]; non-operated (Sham) rats, 20 mg/kg/rat/day intraperitoneal, versus vehicle
  vocalization threshold (mechanical hyperalgesia): no influence whatsoever on the behavior of non-operated rats
